Data from patent publication US10761001B2, “Devices and methods for tension measurements and applications of same” (Vanderbilt University, priority 2016, dated 2020).
“Also recorded” adds a separate entry of the source.

Key:
[1] = tested on: engineered cardiac tissue construct (ECTC) from neonatal rat ventricular cells; assay: I-Wire ECTC contractility under β-adrenergic stimulation; type: cell-based
Procedure: (§1) Method step 2. Cell isolation and culturing: Neonatal rat ventricular cells were obtained from 2-day-old neonatal Sprague-Dawley rats using a trypsin digestion protocol with agitation overnight at 4° C. and plating cells for 40 minutes at 37° C. The population of isolated cells is heterogeneous and besides cardiomyocytes includes cardiofibroblasts, endothelial cells, and vascular smooth muscle cells. The presence of the different cell types is important for formation of the extracellular matrix and tissue structure. The isolated cells were mixed with fibrinogen (5 mg/mL, Sigma-Aldrich, St. Louis, Mo., USA)/Matrigel™ (100 μL/mL, BD Biosciences, San Jose, Calif., USA) plus thrombin (15 μL, 100 U/mL, Sigma-Aldrich, St. Louis, Mo., USA), and pipetted in a casting mold (FIG. 21A). Thereafter, cells were kept at 37° C. in a 5% CO2 humidified cell culture incubator for 1 hour. When fibrinogen was polymerized, 2 mL of cell culture media was added per well. The culture medium consisted of DMEM (Gibco Fisher Scientific, Waltham, Mass., USA), 10% horse serum (Gibco Fisher Scientific, Waltham, Mass., USA), 2% chick embryo extract (US Biological Fisher Scientific, Waltham, Mass., USA), 1% penicillin/streptomycin (Gibco Fisher Scientific, Waltham, Mass., USA), 10 μg/mL insulin (Sigma-Aldrich, St. Louis, Mo., USA), 400 μM tranexamic acid (Sigma-Aldrich, St. Louis, Mo., USA), and 33 μg/mL aprotinin (Sigma-Aldrich, St. Louis, Mo., USA). Over time, the preparation condensed to form elongated muscle fibers of 350-400 μm in diameter and 7 mm long. After 13-15 days of culturing, the contractility and stiffness of the ECTC (FIGS. 21B and 21C) could be measured using our microscope-based optical setup (FIG. 3A).
Method step 3. Registration system for the contraction recording: To apply tensional force to the ECTC and detect contraction, a flexible PEEK tube of 365 μm in outer diameter and 120 μm bore (Putnam Plastics, Dayville, Conn., USA) and 28 mm length was glued to a Plexiglas cantilever adjuster attached to a cantilever support plate with two embedded position-control magnets (FIG. 3A). The stiffness of the probe was roughly matched to that of the ECTC; one might choose to use either a softer or stiffer probe to study ECTCs with different mechanical properties. The cantilever support plate with cantilever adjuster and flexible probe was mounted with a friction fit to the condenser of the inverted optical microscope (Eclipse Ti, Nikon, Melville, N.Y., USA) equipped with a digital camera system (Zyla sCMOS Camera, Andor Technology, Belfast, Northern Ireland). […]
Method step 4. Registration of action potential and reconstruction of electrical and mechanical restitution: Action potentials were recorded by utilizing floating micropipettes filled with 3-M KCl. […]

[2] = tested on: engineered cardiac tissue construct (ECTC) from neonatal rat ventricular cells; assay: I-Wire ECTC elasticity measurement (stretch-stress curve, Young's modulus); type: cell-based
Procedure: as §1
Method step 3. […]
At first, the linear part of the ECTC stretch-force curve was fitted using a linear equation and the amount of change of ECTC length was calculated. […]

isolated mice CMs = conditions: after application of blebbistatin; cited from earlier work

## CC(C)NCC(O)c1ccc(O)c(O)c1 (centres unmarked) [isoproterenol]
[1]; 1 μM isoproterenol (β-adrenergic stimulation)
  contraction duration: shortening
[1]; 1 μM isoproterenol, applied force exceeded 0.233 mN, P<0.05, N=7
  contraction velocity: statistically significant acceleration
[1]; 1 μM isoproterenol, applied transverse forces greater than 0.156 mN, P<0.05, N=7
  developed force: significant increase
[1]; 1 μM isoproterenol, separate analysis of systole and diastole
  force exerted by the ECTC during contraction and relaxation: significant change occurs only in the phase of relaxation; also recorded: significant effect of the isoproterenol only during the diastolic phase

## Cc1ccc2c(c1)C(=O)C1(O)CCN(c3ccccc3)C1=N2 (centres unmarked) [blebbistatin]
[2]; 6 μM blebbistatin
  decrease of ECTC stiffness: 23%
[2]; 6 μM blebbistatin, untreated (relaxation) 13.4±2.5 kPa, N=5, P<0.05
  Young's modulus of the ECTC: 10.3±2.8 kPa
[2]; blebbistatin-treated ECTCs, 6 μM, systolic 4.9, diastolic 15.1 %/mN
  slope of the fitted straight line of the stretch-stress curve: 17.5 %/mN
Isolated mice CMs
  lowering of the diastolic stress: 30%
